Paper PMC5218480 (PLoS ONE, 2017)

Tested on: MV-4-11 cells
Experiment: Gene expression microarray analysis (Affymetrix PrimeView) and GSEA
Format: cell-based, human
Parameters: RFU PODN (11730768_x_at) / Fold change /veh PODN (11730768_x_at) / RFU LINC00158 (11744669_a_at) / Fold change /veh LINC00158 (11744669_a_at) / RFU DUSP10 (11751237_a_at) / Fold change /veh DUSP10 (11751237_a_at) / RFU ID3 (11757404_x_at) / Fold change /veh ID3 (11757404_x_at) / RFU PLEKHG5 (11737974_s_at) / Fold change /veh PLEKHG5 (11737974_s_at) / RFU LRRC4B (11730491_at) / Fold change /veh LRRC4B (11730491_at) / RFU GIMAP4 (11747438_a_at) / Fold change /veh GIMAP4 (11747438_a_at) / RFU KRT8 (11758183_x_at) / Fold change /veh KRT8 (11758183_x_at) / RFU CNN1 (11734310_a_at) / Fold change /veh CNN1 (11734310_a_at) / RFU VPS37D (11726825_at) / Fold change /veh VPS37D (11726825_at) / RFU C10orf10 (11716522_x_at) / Fold change /veh C10orf10 (11716522_x_at) / RFU KIR2DL2 /// KIR2DL4 /// KIR2DL5A /// KIR2DL5B /// KIR2DS1 /// KIR2DS2 /// KIR2DS3 /// KIR2DS4 /// KIR3DL3 /// KIR3DL3 /// KIR3DS1 (11738374_at) / Fold change /veh KIR2DL2 /// KIR2DL4 /// KIR2DL5A /// KIR2DL5B /// KIR2DS1 /// KIR2DS2 /// KIR2DS3 /// KIR2DS4 /// KIR3DL3 /// KIR3DL3 /// KIR3DS1 (11738374_at) / RFU C1QL1 (11718748_at) / Fold change /veh C1QL1 (11718748_at) / RFU TMPRSS4 (11747572_a_at) / Fold change /veh TMPRSS4 (11747572_a_at) / RFU HAMP (11756126_x_at) / Fold change /veh HAMP (11756126_x_at) / RFU RNFT2 (11725882_a_at) / Fold change /veh RNFT2 (11725882_a_at) / RFU NR4A2 (11747474_a_at) / Fold change /veh NR4A2 (11747474_a_at) / RFU ABCC12 (11746883_a_at) / Fold change /veh ABCC12 (11746883_a_at) / RFU TMEM136 (11760407_x_at) / Fold change /veh TMEM136 (11760407_x_at) / RFU CLDN22 /// WWC2 (11732394_at) / Fold change /veh CLDN22 /// WWC2 (11732394_at) / RFU HLA-DPB1 (11760878_x_at) / Fold change /veh HLA-DPB1 (11760878_x_at) / RFU SPINT1 (11716480_a_at) / Fold change /veh SPINT1 (11716480_a_at) / RFU GAP43 (11754022_s_at) / Fold change /veh GAP43 (11754022_s_at) / RFU A4GNT (11735810_at) / Fold change /veh A4GNT (11735810_at) / RFU PRB3 (11715151_x_at) / Fold change /veh PRB3 (11715151_x_at) / RFU TUBB4B (11761932_at) / Fold change /veh TUBB4B (11761932_at) / RFU CAPN14 (11732068_a_at) / Fold change /veh CAPN14 (11732068_a_at) / RFU TMCC2 (11721928_a_at) / Fold change /veh TMCC2 (11721928_a_at) / RFU IRGQ (11745062_a_at) / Fold change /veh IRGQ (11745062_a_at) / RFU FAM174B (11720279_a_at) / Fold change /veh FAM174B (11720279_a_at) / RFU TMPRSS4 (11748680_a_at) / Fold change /veh TMPRSS4 (11748680_a_at) / RFU FAM212B (11763350_a_at) / Fold change /veh FAM212B (11763350_a_at) / RFU PLEKHG5 (11743358_a_at) / Fold change /veh PLEKHG5 (11743358_a_at) / RFU ZSCAN30 (11745921_a_at) / Fold change /veh ZSCAN30 (11745921_a_at) / RFU CMKLR1 (11741424_a_at) / Fold change /veh CMKLR1 (11741424_a_at) / RFU LOC101060620 /// MAPK8IP1 (11723275_at) / Fold change /veh LOC101060620 /// MAPK8IP1 (11723275_at) / RFU SPTSSB (11747773_x_at) / Fold change /veh SPTSSB (11747773_x_at) / RFU PRSS12 (11739890_at) / Fold change /veh PRSS12 (11739890_at) / RFU BIN1 (11741810_x_at) / Fold change /veh BIN1 (11741810_x_at) / RFU WNT11 (11732464_a_at) / Fold change /veh WNT11 (11732464_a_at) / RFU C10orf10 (11716521_a_at) / Fold change /veh C10orf10 (11716521_a_at) / RFU C5orf56 (11738089_at) / Fold change /veh C5orf56 (11738089_at) / RFU CYB561 (11721691_x_at) / Fold change /veh CYB561 (11721691_x_at) / RFU ANKRD19P (11752326_a_at) / Fold change /veh ANKRD19P (11752326_a_at) / RFU OR2T12 /// OR2T33 /// OR2T8 (11738714_s_at) / Fold change /veh OR2T12 /// OR2T33 /// OR2T8 (11738714_s_at) / RFU VCAN (11748164_a_at) / Fold change /veh VCAN (11748164_a_at) / RFU JSRP1 (11732532_at) / Fold change /veh JSRP1 (11732532_at) / RFU KRTAP10-11 (11738290_x_at) / Fold change /veh KRTAP10-11 (11738290_x_at) / RFU MYO3A (11730013_a_at) / Fold change /veh MYO3A (11730013_a_at) / RFU EBF3 (11725865_a_at) / Fold change /veh EBF3 (11725865_a_at) / RFU CAMK2N1 (11719241_x_at) / Fold change /veh CAMK2N1 (11719241_x_at) / RFU C5orf56 (11738088_a_at) / Fold change /veh C5orf56 (11738088_a_at) / RFU OLFML3 (11715873_a_at) / Fold change /veh OLFML3 (11715873_a_at) / RFU LOC100653217 /// NTM (11731650_a_at) / Fold change /veh LOC100653217 /// NTM (11731650_a_at) / RFU MAPK11 (11762145_a_at) / Fold change /veh MAPK11 (11762145_a_at) / RFU FIZ1 (11724087_x_at) / Fold change /veh FIZ1 (11724087_x_at) / RFU OASL (11726364_x_at) / Fold change /veh OASL (11726364_x_at) / RFU SOX15 (11748057_x_at) / Fold change /veh SOX15 (11748057_x_at) / RFU CD79A (11719716_a_at) / Fold change /veh CD79A (11719716_a_at) / RFU HIST1H1D (11736915_at) / Fold change /veh HIST1H1D (11736915_at) / RFU CASKIN2 (11723855_a_at) / Fold change /veh CASKIN2 (11723855_a_at) / RFU LOC730098 (11760151_x_at) / Fold change /veh LOC730098 (11760151_x_at) / RFU OR4N2 (11742367_at) / Fold change /veh OR4N2 (11742367_at) / RFU PRRT2 (11749266_a_at) / Fold change /veh PRRT2 (11749266_a_at) / RFU SNX32 (11753110_a_at) / Fold change /veh SNX32 (11753110_a_at) / RFU CDHR5 (11726645_a_at) / Fold change /veh CDHR5 (11726645_a_at) / RFU RCAN1 (11760418_a_at) / Fold change /veh RCAN1 (11760418_a_at) / RFU FAM167A (11723789_a_at) / Fold change /veh FAM167A (11723789_a_at) / RFU FAM26E (11764081_at) / Fold change /veh FAM26E (11764081_at) / RFU ISYNA1 (11749810_s_at) / Fold change /veh ISYNA1 (11749810_s_at) / RFU ACY1 (11761880_at) / Fold change /veh ACY1 (11761880_at) / RFU 11764098_at / Fold change /veh 11764098_at / RFU SAMD14 (11745864_x_at) / Fold change /veh SAMD14 (11745864_x_at) / RFU NPB (11741838_a_at) / Fold change /veh NPB (11741838_a_at) / RFU TMPRSS6 (11731388_a_at) / Fold change /veh TMPRSS6 (11731388_a_at) / RFU KRTAP10-2 (11738614_at) / Fold change /veh KRTAP10-2 (11738614_at) / RFU ARHGAP8 /// PRR5-ARHGAP8 (11727945_x_at) / Fold change /veh ARHGAP8 /// PRR5-ARHGAP8 (11727945_x_at) / RFU KRTAP5-7 /// NADSYN1 (11734609_at) / Fold change /veh KRTAP5-7 /// NADSYN1 (11734609_at) / RFU RASL12 (11751679_a_at) / Fold change /veh RASL12 (11751679_a_at) / RFU CDKN2B (11736163_a_at) / Fold change /veh CDKN2B (11736163_a_at) / RFU PRF1 (11729649_at) / Fold change /veh PRF1 (11729649_at) / RFU, ZNF638 /// ZNF638-IT1 / Fold change vs veh, ZNF638 /// ZNF638-IT1 / RFU, PANK3 / Fold change vs veh, PANK3 / RFU, SH3YL1 / Fold change vs veh, SH3YL1 / RFU, ZEB2 / Fold change vs veh, ZEB2 / RFU, NRIP1 / Fold change vs veh, NRIP1 / RFU, PTTG1IP / Fold change vs veh, PTTG1IP / RFU, CAPN2 / Fold change vs veh, CAPN2 / RFU, MED14 / Fold change vs veh, MED14 / RFU, SNORA58 / Fold change vs veh, SNORA58 / RFU, C1orf63 / Fold change vs veh, C1orf63 / RFU, LRRFIP1 / Fold change vs veh, LRRFIP1 / RFU, NDUFAF7 / Fold change vs veh, NDUFAF7 / RFU, SLC12A2 / Fold change vs veh, SLC12A2 / RFU, IBTK / Fold change vs veh, IBTK / RFU, ESF1 / Fold change vs veh, ESF1 / Fold change vs veh, TMEM50B / RFU, TAOK1 / Fold change vs veh, TAOK1 / RFU, ACBD3 / Fold change vs veh, ACBD3 / RFU, TMA16 / Fold change vs veh, TMA16 / RFU, RWDD3 / Fold change vs veh, RWDD3 / RFU, BCAT1 / Fold change vs veh, BCAT1 / RFU, EDEM3 / Fold change vs veh, EDEM3 / RFU, TMEM33 / Fold change vs veh, TMEM33 / RFU, WDR75 / Fold change vs veh, WDR75 / RFU, AHCTF1 / Fold change vs veh, AHCTF1 / RFU, TFRC / Fold change vs veh, TFRC / RFU, ZDHHC17 / Fold change vs veh, ZDHHC17 / RFU, NOM1 / Fold change vs veh, NOM1 / RFU, ARL8B / Fold change vs veh, ARL8B / RFU, ZBTB11 / Fold change vs veh, ZBTB11 / RFU, TAMM41 / Fold change vs veh, TAMM41 / RFU, KIAA1704 /// LOC100996395 / Fold change vs veh, KIAA1704 /// LOC100996395 / RFU, ING1 / Fold change vs veh, ING1 / RFU, TRMT61B / Fold change vs veh, TRMT61B / RFU, FUBP3 / Fold change vs veh, FUBP3 / RFU, TP53 / Fold change vs veh, TP53 / RFU, TNKS2 / Fold change vs veh, TNKS2 / RFU, ZFP14 / Fold change vs veh, ZFP14 / RFU, ACTR2 / Fold change vs veh, ACTR2 / RFU, PPP3R1 / Fold change vs veh, PPP3R1 / RFU, PIK3R1 / Fold change vs veh, PIK3R1 / RFU, HNRNPA1 / Fold change vs veh, HNRNPA1 / RFU, RNF170 / Fold change vs veh, RNF170 / RFU, ZNF28 / Fold change vs veh, ZNF28 / RFU, RNGTT / Fold change vs veh, RNGTT / RFU, OGT / Fold change vs veh, OGT / RFU, BRD1 / Fold change vs veh, BRD1 / RFU, MARS / Fold change vs veh, MARS / RFU, ZNF655 / Fold change vs veh, ZNF655 / RFU, FAHD1 / Fold change vs veh, FAHD1 / RFU, BDP1 / Fold change vs veh, BDP1 / RFU, LRRCC1 / Fold change vs veh, LRRCC1 / RFU, ARID1A / Fold change vs veh, ARID1A / RFU, ZNF146 / Fold change vs veh, ZNF146 / RFU, ZNF330 / Fold change vs veh, ZNF330 / RFU, GPN3 / Fold change vs veh, GPN3 / RFU, C9orf123 / Fold change vs veh, C9orf123 / RFU, N4BP2L2 / Fold change vs veh, N4BP2L2 / RFU, ARFIP1 / Fold change vs veh, ARFIP1 / RFU, FAM179B / Fold change vs veh, FAM179B / RFU, BCL10 / Fold change vs veh, BCL10 / RFU, UHRF1BP1L / Fold change vs veh, UHRF1BP1L / RFU, BET1 / Fold change vs veh, BET1 / RFU, CNOT2 / Fold change vs veh, CNOT2 / RFU, ZNF268 / Fold change vs veh, ZNF268 / Fold change vs veh, ZNF507 / RFU, DGCR2 / Fold change vs veh, DGCR2 / RFU, WDSUB1 / Fold change vs veh, WDSUB1 / Fold change vs veh, HSP90B1 /// MIR3652 / RFU, ADSS / Fold change vs veh, ADSS / RFU, GK / Fold change vs veh, GK / RFU, ZNF148 / Fold change vs veh, ZNF148 / RFU, TAF9 / Fold change vs veh, TAF9 / RFU, SLC1A5 / Fold change vs veh, SLC1A5 / RFU, SLMO2 / Fold change vs veh, SLMO2 / RFU, ABCC4 / Fold change vs veh, ABCC4 / RFU, LOC101060439 /// RAP1B / Fold change vs veh, LOC101060439 /// RAP1B / RFU, RFX7 / Fold change vs veh, RFX7 / RFU, GTPBP10 / Fold change vs veh, GTPBP10 / RFU, CNEP1R1 / Fold change vs veh, CNEP1R1 / RFU, BIVM-ERCC5 /// ERCC5 / Fold change vs veh, BIVM-ERCC5 /// ERCC5 / RFU, ILF3 / Fold change vs veh, ILF3 / RFU 11762660_at / Fold change /veh 11762660_at / RFU VCAN (11757783_s_at) / Fold change /veh VCAN (11757783_s_at) / RFU DDX43 (11728927_at) / Fold change /veh DDX43 (11728927_at) / RFU KRT8 (11758188_x_at) / Fold change /veh KRT8 (11758188_x_at) / RFU NKD1 (11759106_at) / Fold change /veh NKD1 (11759106_at) / RFU SRD5A1 (11742802_a_at) / Fold change /veh SRD5A1 (11742802_a_at) / RFU TPSAB1 /// TPSB2 (11721975_s_at) / Fold change /veh TPSAB1 /// TPSB2 (11721975_s_at) / RFU GSTM3 (11746129_a_at) / Fold change /veh GSTM3 (11746129_a_at) / RFU IL23R (11737362_x_at) / Fold change /veh IL23R (11737362_x_at) / RFU TMEM51 (11727254_a_at) / Fold change /veh TMEM51 (11727254_a_at) / RFU PIWIL2 (11732686_x_at) / Fold change /veh PIWIL2 (11732686_x_at) / RFU ORM1 (11744905_x_at) / Fold change /veh ORM1 (11744905_x_at) / RFU CCDC152 (11743942_at) / Fold change /veh CCDC152 (11743942_at) / RFU ECM1 (11717891_a_at) / Fold change /veh ECM1 (11717891_a_at) / RFU IL23R (11748794_a_at) / Fold change /veh IL23R (11748794_a_at) / RFU TNFAIP8L3 (11732012_x_at) / Fold change /veh TNFAIP8L3 (11732012_x_at) / RFU MBOAT4 (11741988_at) / Fold change /veh MBOAT4 (11741988_at) / RFU 11764193_at / Fold change /veh 11764193_at / RFU TMEM53 (11763286_at) / Fold change /veh TMEM53 (11763286_at) / RFU MAGEB2 (11727129_at) / Fold change /veh MAGEB2 (11727129_at) / RFU TMEM200A (11744735_a_at) / Fold change /veh TMEM200A (11744735_a_at) / RFU CCDC152 (11751479_a_at) / Fold change /veh CCDC152 (11751479_a_at) / RFU FAM211A (11726209_a_at) / Fold change /veh FAM211A (11726209_a_at) / RFU RGS16 (11746705_a_at) / Fold change /veh RGS16 (11746705_a_at) / RFU VCAN (11755009_s_at) / Fold change /veh VCAN (11755009_s_at) / RFU RHOB (11743442_s_at) / Fold change /veh RHOB (11743442_s_at) / RFU RGS16 (11720943_a_at) / Fold change /veh RGS16 (11720943_a_at) / RFU RGS16 (11720944_at) / Fold change /veh RGS16 (11720944_at) / RFU, VPS4B / Fold change vs veh, VPS4B / RFU, CREB1 / Fold change vs veh, CREB1 / RFU, DNAJC13 / Fold change vs veh, DNAJC13 / RFU, GNAQ / Fold change vs veh, GNAQ / RFU, CDK5R1 / Fold change vs veh, CDK5R1 / RFU, ZRANB3 / Fold change vs veh, ZRANB3 / RFU, CUL4A / Fold change vs veh, CUL4A / RFU, CCNY / Fold change vs veh, CCNY / RFU, UFL1 / Fold change vs veh, UFL1 / RFU, COG3 / Fold change vs veh, COG3 / RFU, DIAPH2 / Fold change vs veh, DIAPH2 / RFU, SKA2 / Fold change vs veh, SKA2 / RFU, AFF3 / Fold change vs veh, AFF3 / RFU, LMF1 / Fold change vs veh, LMF1 / RFU, IPO11 / Fold change vs veh, IPO11 / RFU, DFFB / Fold change vs veh, DFFB / RFU, FOXP1 / Fold change vs veh, FOXP1 / RFU, CARD8 / Fold change vs veh, CARD8 / RFU, STRN3 / Fold change vs veh, STRN3 / RFU, ADK / Fold change vs veh, ADK / RFU, RASSF2 / Fold change vs veh, RASSF2 / RFU, WIPF1 / Fold change vs veh, WIPF1 / RFU, LARP1B / Fold change vs veh, LARP1B / RFU, RASA1 / Fold change vs veh, RASA1 / RFU, RB1 / Fold change vs veh, RB1 / RFU, PPFIA1 / Fold change vs veh, PPFIA1 / RFU, MAT2A / Fold change vs veh, MAT2A / RFU, CCT5 / Fold change vs veh, CCT5 / RFU, WDR92 / Fold change vs veh, WDR92 / RFU, CUX1 / Fold change vs veh, CUX1 / RFU, TTC7A / Fold change vs veh, TTC7A / RFU, TMEM135 / Fold change vs veh, TMEM135 / RFU, DEPTOR / Fold change vs veh, DEPTOR / RFU, CPM / Fold change vs veh, CPM / RFU, DNAJB6 / Fold change vs veh, DNAJB6 / RFU, CACNA2D3 / Fold change vs veh, CACNA2D3 / RFU, DTX4 / Fold change vs veh, DTX4 / RFU, TFCP2 / Fold change vs veh, TFCP2 / RFU, GMCL1 /// GMCL1P1 / Fold change vs veh, GMCL1 /// GMCL1P1 / RFU, AEBP2 / Fold change vs veh, AEBP2 / RFU, SNHG1 /// SNORD22 /// SNORD25 /// SNORD26 /// SNORD27 /// SNORD28 /// SNORD29 /// SNORD31 / Fold change vs veh, SNHG1 /// SNORD22 /// SNORD25 /// SNORD26 /// SNORD27 /// SNORD28 /// SNORD29 /// SNORD31 / Fold change (Aza/veh), C12orf56 (ProbeSet 11735607_a_at) / Fold change (ACY-1035/veh), C12orf56 (ProbeSet 11735607_a_at) / Fold change (Aza/veh), FGFR1OP (ProbeSet 11751329_s_at) / Fold change (ACY-1035/veh), FGFR1OP (ProbeSet 11751329_s_at) / Fold change (Aza/veh), VPS36 (ProbeSet 11739960_a_at) / Fold change (ACY-1035/veh), VPS36 (ProbeSet 11739960_a_at) / RFU SYPL1 (11715823_x_at) / Fold change /veh SYPL1 (11715823_x_at) / RFU IGFBP7 (11715501_s_at) / Fold change /veh IGFBP7 (11715501_s_at) / RFU REEP3 (11722064_at) / Fold change /veh REEP3 (11722064_at) / RFU IGLL1 (11728026_x_at) / Fold change /veh IGLL1 (11728026_x_at): dose or concentration left out as unconfirmed
Conditions: ProbeSet 11734782_x_at; LIST D

With `Nc1ncn([C@@H]2O[C@H](CO)[C@@H](O)[C@H]2O)c(=O)n1` [azacitidine] the “Fold change vs veh, WDR92” value was 0.69.
